This is an account of results in US6797721B2, “Phorboxazole derivatives for treating cancer” (Parker Hughes Institute, priority 1999, dated 2004).

Assay [1] relates to NALM-6 human B-lineage acute lymphoblastic leukemia cells. The experiment in a line: MTT cytotoxicity assay, NALM-6. In kind it is cell-based. As for the experimental part:
(§1) The cytotoxicity assay of synthetic Phorboxazole A and various derivative compounds against human tumor cells was performed using the MTT (3-[4,5-dimethylthiazol-2-yl]-2,5-diphenyl tetrazolium bromide) assay (Boehringer Mannheim Corp., Indianapolis, Ind.). Briefly, exponentially growing brain tumor cells were seeded into a 96-well plate at a density of 2.5×10^4 cells/well and incubated for 36 hours at 37° C. prior to drug exposure. On the day of treatment, culture medium was carefully aspirated from the wells and replaced with fresh medium containing the various phorboxazole A derivative compounds as well as the tyrosine kinase inhibitory isoflavone genistein (GEN) at concentrations ranging from 0.1 to 250 μM. Triplicate wells were used for each treatment.
(§2) Human glioblastoma cells U373 (brain cancer), human B-lineage acute lymphoblastic leukemia cells NALM-6, and human breast cancer cells BT-20 were obtained from American Type Culture Collection (Rockville, Md.) and maintained as a continuous cell line in Dulbecco's modified Eagles's medium supplemented with 10% fetal bovine serum and antibiotics.
(§3) The cells were incubated with the various compounds for 24-36 hours at 37° C. in a humidified 5% CO2 atmosphere. To each well, 10 μl of MTT (0.5 mg/ml final concentration) was added and the plates were incubated at 37° C. for 4 hours to allow MTT to form formazan crystals by reacting with metabolically active cells. The fonnazan crystals were solubilized overnight at 37° C. in a solution containing 10% SDS in 0.01 M HCl. The absorbance of each well was measured in a microplate reader (Labsystems) at 540 nm and a reference wavelength of 690 nm. To translate the OD540 values into the number of live cells in each well, the OD540 values were compared to those on standard OD540-versus-cell number curves generated for each cell line. The percent survival was calculated using the formula: [formula]
(§4) The IC50 values were calculated by non-linear regression analysis.

The test system of assay [2] is BT-20 human breast cancer cells. Kind of assay: MTT cytotoxicity assay, BT-20. It counts as cell-based. As for the experimental part:
as §1, §2, §3, §4
In general terms: Tetrazolium assays rely on reduction of a dye to a coloured formazan, in cell work by metabolically active cells.

Assay [3] concerns U373 human glioblastoma cells. Kind of assay: MTT cytotoxicity assay, U373. It counts as cell-based. The following applies: U373 MG, read-out: IC50 [MTT]. As for the experimental part: as §1, §2, §3, §4
Assay [4] has as its system MDA-MB-231 breast cancer cells. Kind of assay: In vitro adhesion assay to ECM proteins, MDA-MB-231. It counts as cell-based, human. To be noted: laminin-, fibronectin-, and collagen-coated plates, 0.1 μM to 1 μM for 24 hours. As for the experimental part:
(§5) Human brain tumor cell lines U-373 MG and breast cancer cell lines BT-20 and MDA-MB-231 were obtained from American Type Culture Collection (ATCC, Rockville, Md.) and maintained in liquid culture using DMEM supplemented with 10% fetal bovine serum and antibiotics. Fibroblast conditioned medium was used as a source of chemoattractant in vitro invasion assays. Conditioned medium was prepared as described in the literature (Albini et.al., 1987, Cancer Res., 47:3239-3245).
(§6) In vitro adhesion assays were performed to (a) study the baseline adhesive properties of various breast cancer and glioblastoma cell lines and (b) evaluate the effects of phorboxazole A derivatives on the adhesive properties of breast cancer and glioblastoma cells. The plates for the adhesion assays were precoated with the extracellular matrix proteins laminin, fibronectin, or type IV collagen (each at a final concentration of 1 μg/ml in PBS) overnight at 4° C. and dried. On the day of the experiment, the wells were rehydrated and blocked with 10% bovine serum albumin in PBS for 1 hour at room temperature and used for the adhesion assays, as described below.
(§7) The effects of synthetic phorboxazole A and specific derivatives on adhesion of breast cancer and glioblastoma cells was studied. Exponentially growing cells in DMEM were incubated with phorboxazole compounds or genistein as a control at concentrations ranging from 0.1 μM to 1 μM for 24 hours in a humidified 5% CO2 atmosphere. DMSO (0.1%) was included as a vehicle control. After treatment, cells were detached from the flasks with 0.05% trypsin (Life Technologies) resuspended in DMEM, incubated at 37° C. for 2 hours to allow them to recover from the trypsinization stress and examined for their ability to adhere to plates precoated with ECM proteins.
(§8) In adhesion assays, cells were centrifuged, washed twice with serum-free DMEM, counted and resuspended in serum-free DMEM to a final concentration of 2.5×10^5 cells/ml. […] The adherent fraction was quantitated using MTT (3-[4,5-dimethylthiazol-2-yl]-2,5-diphenyltetrazolium bromide) assays. […] The absorbance of each well was measured in a microplate reader (Labsystems) at 540 nm and a reference wavelength of 690 nm.
(§9) To translate the OD540 values into the number of cells in each well, the OD540 values were compared to those on standard OD540-versus-cell number curves generated for each cell line. The adherent fractions of cells treated with phorboxazole A derivatives were compared to those of DMSO-treated control cells and the percent inhibition of adhesion was determined using the formula: [formula]
(§10) Each treatment condition was evaluated in duplicate in 3 independent experiments. The IC50 values were calculated by non-linear regression analysis. […]

The test system of assay [5] is U373 glioblastoma cells. Kind of assay: In vitro adhesion assay to ECM proteins, U373. In kind it is cell-based, human. The following applies: laminin-, fibronectin-, and collagen-coated plates, 0.1 μM to 1 μM for 24 hours. As for the experimental part:
as §5, §6, §7, §8, §9, §10

The subject of assay [6] is U373 glioblastoma cells. Kind of assay: Matrigel invasion assay (Boyden chambers). The following applies: Homo sapiens, U373 MG, read-out: IC50, inhibition of glioblastoma cell invasion through Matrigel. It counts as cell-based. As for the experimental part: The in vitro invasiveness of human brain tumor cell lines U-373 MG and breast cancer cell lines BT-20 and MDA-MB-231 cells was assayed using a previously published method which employs Matrigel™-coated Costar 24-well transwell cell culture chambers (“Boyden chambers”) with 8.0-μm-pore polycarbonate filter inserts (Albini,et.al, 1987, Cancer Res., 47:3239-3245). The chamber filters were coated with 50 μg/ml of Matrigel™ matrix, incubated overnight at room temperature under a laminar flow hood and stored at 4° C. Matrigel™ matrix is made up of several components of the extracellular matrix (ECM), including collagen, laminin and proteo-glycans. The cancer cells were incubated with 500, 250, 125, 62.5, and 31.2 nM concentrations of the synthetic Phorboxazole compounds for 72 hours.
On the day of the experiment, the coated inserts were rehydrated with 0.5 ml serum-free DMEM containing 0.1% bovine serum albumin for 1-2 hours. The treated cells were trypsinized, washed twice with serum-free DMEM containing BSA, counted and resuspended at 1×10^5 cells/ml. A 0.5 ml cell suspension containing 5×10^4 cells in a serum-free DMEM was added to the Matrigel™-coated and rehydrated filter inserts. A volume of 750 μl of NIH fibroblast conditioned medium was placed as a chemoattractant in 24-well plates and the inserts were placed in wells and incubated at 37° C. for 48 hours.
The invasive cells that migrated to the lower side of the filter were fixed, stained with Hema-3 solutions and counted under microscope. Five to 10 random fields per filter were counted to determine the mean (±SE) values for the invasive fraction. The invasive fractions of cells treated with phorboxazole A derivatives were compared to those of DMSO treated control cells and the percent inhibition of invasiveness was determined using the formula: [formula]
Each treatment condition was evaluated in duplicate in 3 independent experiments. IC50 values were calculated by non-linear regression analysis using Graphpad Prisin Software Version 2.0 (Graphpad Software Inc., San Diego, Calif.).

The subject of assay [7] is BT-20 breast cancer cells. Kind of assay: In vitro adhesion assay to ECM proteins, BT-20. In kind it is cell-based, human. To be noted: laminin-, fibronectin-, and collagen-coated plates, 0.1 μM to 1 μM for 24 hours. As for the experimental part:
as §5, §6, §7, §8, §9, §10

The mark [8] stands for this setting: NALM-6 (leukemia, ALL), 24-36 hours, read-out: IC50 [MTT].
Setting [9] is: BT-20 (breast cancer), 24-36 hours, read-out: IC50 [MTT].
Where [10] appears, read: U373 (brain tumor, glioblastoma), 24-36 hours.

Like-named read-outs stand apart in the source and are kept apart here.

Broadly, the IC50 is the concentration that gives 50% inhibition. As to `C=C1C[C@@H]2C[C@@H]3C[C@@H](O)C[C@@H](O3)c3coc(n3)/C=C/C[C@H]3O[C@@H](/C(C)=C/c4coc(C)n4)[C@H](C)[C@@H](OC(=O)/C=C\C[C@@H](C1)O2)[C@H]3C` [Compound 2, 32-Methyl-phorboxolide A (C1-C32 analog)], the half-maximal inhibitory concentration (IC50) is over 2000 nM in assay [1] (NALM-6, read-out: IC50 [MTT]); over 2000 nM in assay [2] (BT-20, read-out: IC50 [MTT]); over 2000 nM in assay [3].

In the case of `C=C1C[C@@H]2C[C@@H]3C[C@@H](O)C[C@@H](O3)c3coc(n3)/C=C/C[C@H]3O[C@@H](/C(C)=C/c4coc(C[C@]5(O)C[C@H](OC)C[C@H](CO)O5)n4)[C@H](C)[C@@H](OC(=O)/C=C\C[C@@H](C1)O2)[C@H]3C` [Compound 3, C1-C38 Phorboxazole A], the IC50 in assay [1] (setting [8]), in assay [2] (setting [9]) and in assay [3] (setting [10]) was over 2000 nM each time.

Regarding `COC(=O)/C=C/C[C@H]1O[C@@H](/C(C)=C/c2coc(C[C@]3(O)C[C@H](OC)C[C@H]([C@H](O)/C=C(C)/C=C/[C@@H](C/C=C/Br)OC)O3)n2)[C@H](C)[C@@H](OC(C)=O)[C@H]1C` [Compound 4, 24-O-Acetyl-18-methyl-phorboxylate (C18-C46 analog)], the “Inhibition of cell adhesion” value in assay [4], in assay [5] and in assay [7] was “active” each time. The IC50 was over 2000 nM in assay [1] (NALM-6, read-out: IC50 [MTT]); over 2000 nM in assay [2] (BT-20, read-out: IC50 [MTT]); over 2000 nM in assay [3]; 152 nM in assay [6].

Turning to `COC(=O)C[C@]1(O)C[C@H](OC)C[C@H]([C@H](O)/C=C(C)/C=C/[C@@H](C/C=C/Br)OC)O1` [Compound 5, 31-Methyl-phorboxylate (C31-C46 analog)], the “Inhibition of cell adhesion” value in assay [4], in assay [5] and in assay [7] was “active” throughout. Further, the IC50 in assay [1] (NALM-6, read-out: IC50 [MTT]) is over 2000 nM; in assay [2] (BT-20, read-out: IC50 [MTT]), over 2000 nM; in assay [3] it was over 2000 nM; in assay [6], 422 nM.

Take `C=C1C[C@@H]2C[C@@H]3C[C@@H](O)C[C@@H](O3)c3coc(n3)/C=C/C[C@H]3O[C@@H](/C(C)=C/C(CO)NC(=O)C[C@]4(O)C[C@H](OC)C[C@H]([C@H](O)/C=C(C)/C=C/[C@@H](C/C=C/Br)OC)O4)[C@H](C)[C@@H](OC(=O)/C=C\C[C@@H](C1)O2)[C@H]3C` (stereo partly drawn) [Compound 6, 29-Phorboxamide A (hydrated analog)]: the “Inhibition of cell adhesion” value in assay [4], in assay [5] and in assay [7] was “active” throughout. For the same compound, the IC50 is over 2000 nM in assay [1] (setting [8]); over 2000 nM in assay [2] (setting [9]); over 2000 nM in assay [3] (setting [10]); under 125 nM in assay [6] (cells treated 72 hours, invasion 48 hours).

As to `C#CC[C@H](/C=C/C(C)=C/[C@@H](O)[C@H]1C[C@@H](OC)C[C@](Cc2nc(/C=C(\C)[C@@H]3O[C@@H]4C/C=C/c5nc(co5)[C@H]5C[C@H](O)C[C@@H](C[C@H]6CC(=C)C[C@H](C/C=C\C(=O)O[C@@H]([C@H]4C)[C@H]3C)O6)O5)co2)(OC)O1)OC` [Compound 7, 45,46-Dehydrobromo-33-O-methyl-Phorboxazole A], the IC50 in assay [1] (setting [8]), in assay [2] (setting [9]) and in assay [3] (setting [10]) was over 2000 nM throughout.

On to `C=C1C[C@@H]2C[C@@H]3C[C@@H](O)C[C@@H](O3)c3coc(n3)/C=C/C[C@H]3O[C@@H](/C(C)=C/c4coc(C[C@]5(O)C[C@H](OC)C[C@H]([C@H](O)/C=C(C)/C=C/[C@@H](C/C=C/Br)OC)O5)n4)[C@H](C)[C@@H](OC(=O)CCC[C@@H](C1)O2)[C@H]3C` [Compound 10, 2,3-Dihydrophorboxazole A], for which the 50% inhibitory concentration (IC50) in assay [1] (setting [8]), in assay [2] (setting [9]) and in assay [3] (setting [10]) was over 2000 nM throughout.
